Seven molecules from ChEMBL document CHEMBL1156103, “Ionic liquid mediated and promoted eco-friendly preparation of thiazolidinone and pyrimidine nucleoside-thiazolidinone hybrids and their antiparasitic activities” (Bioorg Med Chem Lett, 2009) can be followed below.

pIC50: −log10 of the molar value.

Broadly, the pIC50 is the IC50 on a negative log10 scale, so that one unit is a factor of ten.

In assay [1] the test system is Trypanosoma brucei brucei. The experiment in a line: Antitrypanosomal activity against Trypanosoma brucei brucei GVR 35 trypomastigotes after 72 hrs by MTT assay. The format is functional, organism-based. The settings on record: GVR 35, 72 h.
In another assay the test system is Leishmania donovani. Nature of the assay: Antileishmanial activity against Leishmania donovani LV9 promastigotes after 72 hrs by MTT assay. The format is functional, organism-based. The conditions noted are these: LV9, 72 h. A general note: Tetrazolium assays rely on reduction of a dye to a coloured formazan, in cell work by metabolically active cells.

As to `CC(=O)OC[C@H]1O[C@@H](n2cc(C3SCC(=O)N3c3ccccn3)c(=O)[nH]c2=O)C[C@@H]1OC(C)=O` (some centres undefined), the pIC50 (in assay [1]; with Leishmania donovani) was under 4.00 in each case.
As for `CC(=O)OC[C@H]1O[C@@H](n2cc(C3SCC(=O)N3c3cccc(Br)n3)c(=O)[nH]c2=O)C[C@@H]1OC(C)=O` (some centres undefined), the pIC50 in assay [1] is under 4.00; in the assay with Leishmania donovani, 4.30.
In the case of `CC(=O)OC[C@H]1O[C@@H](n2cc(C3SCC(=O)N3c3ccccc3)c(=O)[nH]c2=O)C[C@@H]1OC(C)=O` (some centres undefined), the pIC50 is under 4.00 in assay [1] and 4.30 in the assay with Leishmania donovani.
The corresponding values for `CC(=O)OC[C@H]1O[C@@H](n2cc(C3SCC(=O)N3c3cccc([N+](=O)[O-])c3)c(=O)[nH]c2=O)C[C@@H]1OC(C)=O` (some centres undefined) are under 4.00 and under 4.00.
`CC(=O)OC[C@H]1O[C@@H](n2cc(C3SCC(=O)N3c3ccc(Cl)cc3)c(=O)[nH]c2=O)C[C@@H]1OC(C)=O` (some centres undefined): the pIC50 in assay [1] is under 4.00; in the assay with Leishmania donovani it was 4.60.
Consider `CC(=O)OC[C@H]1O[C@@H](n2cc(C3SCC(=O)N3c3ccc(F)cc3)c(=O)[nH]c2=O)C[C@@H]1OC(C)=O` (some centres undefined), for which the pIC50 in assay [1] was under 4.00; in the assay with Leishmania donovani, 4.30.
Regarding `CC(=O)OC[C@H]1O[C@@H](n2cc(C3SCC(=O)N3c3ccc(C)cc3)c(=O)[nH]c2=O)C[C@@H]1OC(C)=O` (some centres undefined), the pIC50 is under 4.00 in assay [1] and 4.00 in the assay with Leishmania donovani.
